Experiment in all cases: relative viability (nuclei count vs DMSO), 5 days (fraction); higher = more cells survive
Compound in the assay “Sulindac + Trametinib”: CC1=C(CC(=O)O)c2cc(F)ccc2/C1=C\c1ccc([S+](C)[O-])cc1 [Sulindac] + CC(=O)Nc1cccc(-n2c(=O)n(C3CC3)c(=O)c3c(Nc4ccc(I)cc4F)n(C)c(=O)c(C)c32)c1 [Trametinib] (partner 0.02 µM)
The method in brief:
(§1)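 Lung cancer cell lines were pin-tool dosed in 1536-well plates on the day after seeding, with either a lone drug or a fixed anchor-drug dose plus five library-drug doses (not always all listed) in √10 steps. Nuclei were counted on 4× images after 5 days. Relative viability is the ratio of treated-well to vehicle-well nuclei counts, with each value a median of duplicate plates.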

Compound in the assay “Sulindac + Pictilisib”: CC1=C(CC(=O)O)c2cc(F)ccc2/C1=C\c1ccc([S+](C)[O-])cc1 [Sulindac] + CS(=O)(=O)N1CCN(Cc2cc3nc(-c4cccc5[nH]ncc45)nc(N4CCOCC4)c3s2)CC1 [Pictilisib] (partner 1 µM)
The method in brief:
as §1

Compound in assay [1]: CN[C@@H]1C[C@H]2O[C@@](C)([C@@H]1OC)n1c3ccccc3c3c4c(c5c6ccccc6n2c5c31)C(=O)NC4 [Staurosporine] + Cc1nc(NC(=O)N2CCC[C@H]2C(N)=O)sc1-c1ccnc(C(C)(C)C(F)(F)F)c1 [Alpelisib] (partner 2 µM)
Summed up: as §1

Compound in assay [2]: O=c1[nH]cc(F)c(=O)[nH]1 [5-Fluorouracil] + N=C(N)NC(=N)NCCc1ccccc1 [Phenformin] (partner 250 µM)
Summed up:
as §1

Consider five cell lines from the supplement of paper PMC10307832.

PC-14: the relative viability is 0.908 with Sulindac + Trametinib (first compound 0.08 µM); 0.772 in the assay with Sulindac + Trametinib (first compound 0.253 µM); 0.745 with Sulindac + Trametinib (first compound 0.8 µM); 0.779 with Sulindac + Trametinib (first compound 2.53 µM); 1.01 with Sulindac + Trametinib (first compound 8 µM); 0.83 with Sulindac + Pictilisib (first compound 0.08 µM). In addition, the relative viability was 0.65 with Sulindac + Pictilisib (first compound 0.253 µM); 0.73 in the assay with Sulindac + Pictilisib (first compound 2.53 µM); 0.757 in the assay with Sulindac + Pictilisib (first compound 8 µM); 0.693 in assay [1] (first compound 0.005 µM); 0.452 in assay [1] (first compound 0.01581 µM); 0.172 in assay [1] (first compound 0.05 µM). The relative viability in assay [1] (first compound 0.1581 µM) was 0.0738; in assay [1] (first compound 0.5 µM) it was 0.0496; in assay [2] (first compound 0.02 µM) it was 0.572; in assay [2] (first compound 0.2 µM), 0.682; in assay [2] (first compound 0.6325 µM), 0.558; in assay [2] (first compound 2 µM) it was 0.585.

Turning to RERF-LC-KJ, the relative viability with Sulindac + Trametinib (first compound 0.08 µM) came to 0.99; with Sulindac + Trametinib (first compound 0.253 µM), 0.928; with Sulindac + Trametinib (first compound 0.8 µM), 0.778; with Sulindac + Trametinib (first compound 2.53 µM), 0.877; in the assay with Sulindac + Trametinib (first compound 8 µM), 0.933; in the assay with Sulindac + Pictilisib (first compound 0.08 µM), 0.57. Moreover, the relative viability was found to be 0.626 in the assay with Sulindac + Pictilisib (first compound 0.253 µM); 0.473 with Sulindac + Pictilisib (first compound 2.53 µM); 0.579 in the assay with Sulindac + Pictilisib (first compound 8 µM); 0.916 in assay [1] (first compound 0.005 µM); 0.637 in assay [1] (first compound 0.01581 µM); 0.392 in assay [1] (first compound 0.05 µM). In addition, the relative viability stood at 0.282 in assay [1] (first compound 0.1581 µM); 0.21 in assay [1] (first compound 0.5 µM); 0.465 in assay [2] (first compound 0.02 µM); 0.452 in assay [2] (first compound 0.2 µM); 0.466 in assay [2] (first compound 0.6325 µM); 0.386 in assay [2] (first compound 2 µM).

Take SK-LU-1: the relative viability with Sulindac + Trametinib (first compound 0.08 µM) is 0.657; with Sulindac + Trametinib (first compound 0.253 µM), 0.486; with Sulindac + Trametinib (first compound 0.8 µM), 0.435; in the assay with Sulindac + Trametinib (first compound 2.53 µM), 0.398; in the assay with Sulindac + Trametinib (first compound 8 µM), 0.529; with Sulindac + Pictilisib (first compound 0.08 µM), 0.582. For the same cell line, the relative viability was 0.592 with Sulindac + Pictilisib (first compound 0.253 µM); 0.49 with Sulindac + Pictilisib (first compound 2.53 µM); 0.703 with Sulindac + Pictilisib (first compound 8 µM); 0.264 in assay [1] (first compound 0.005 µM); 0.188 in assay [1] (first compound 0.01581 µM); 0.18 in assay [1] (first compound 0.05 µM). The relative viability in assay [1] (first compound 0.1581 µM) came to 0.158; in assay [1] (first compound 0.5 µM), 0.122; in assay [2] (first compound 0.02 µM) it was 0.529; in assay [2] (first compound 0.2 µM) it was 0.651; in assay [2] (first compound 0.6325 µM) it was 0.501; in assay [2] (first compound 2 µM) it was 0.485.

For SK-MES-1, the relative viability with Sulindac + Trametinib (first compound 0.08 µM) came out at 0.563; with Sulindac + Trametinib (first compound 0.253 µM), 0.555; with Sulindac + Trametinib (first compound 0.8 µM) it was 0.538; in the assay with Sulindac + Trametinib (first compound 2.53 µM), 0.561; with Sulindac + Trametinib (first compound 8 µM), 0.579; with Sulindac + Pictilisib (first compound 0.08 µM), 0.368. Moreover, the relative viability stood at 0.427 with Sulindac + Pictilisib (first compound 0.253 µM); 0.323 with Sulindac + Pictilisib (first compound 0.8 µM); 0.362 in the assay with Sulindac + Pictilisib (first compound 2.53 µM); 0.459 with Sulindac + Pictilisib (first compound 8 µM); 0.849 in assay [1] (first compound 0.005 µM); 0.534 in assay [1] (first compound 0.01581 µM). The relative viability in assay [1] (first compound 0.05 µM) turned out to be 0.246; in assay [1] (first compound 0.1581 µM) it was 0.18; in assay [1] (first compound 0.5 µM), 0.177; in assay [2] (first compound 0.02 µM), 0.748; in assay [2] (first compound 0.2 µM), 0.4; in assay [2] (first compound 0.6325 µM), 0.331. The relative viability in assay [2] (first compound 2 µM) was found to be 0.242.

As to SW 1573, the relative viability with Sulindac + Trametinib (first compound 0.08 µM) was determined as 0.601; with Sulindac + Trametinib (first compound 0.253 µM), 0.645; in the assay with Sulindac + Trametinib (first compound 0.8 µM), 0.496; with Sulindac + Trametinib (first compound 2.53 µM) it was 0.371; in the assay with Sulindac + Trametinib (first compound 8 µM), 0.75; with Sulindac + Pictilisib (first compound 0.08 µM), 0.508. The relative viability in the assay with Sulindac + Pictilisib (first compound 0.253 µM) was found to be 0.632; in the assay with Sulindac + Pictilisib (first compound 0.8 µM), 0.451; with Sulindac + Pictilisib (first compound 2.53 µM), 0.511; with Sulindac + Pictilisib (first compound 8 µM), 0.605; in assay [1] (first compound 0.005 µM) it was 0.45; in assay [1] (first compound 0.01581 µM) it was 0.299. For the same cell line, the relative viability in assay [1] (first compound 0.05 µM) worked out at 0.144; in assay [1] (first compound 0.1581 µM) it was 0.14; in assay [1] (first compound 0.5 µM), 0.148; in assay [2] (first compound 0.02 µM), 0.475; in assay [2] (first compound 0.2 µM), 0.42; in assay [2] (first compound 0.6325 µM) it was 0.385. Moreover, in assay [2] (first compound 2 µM), the relative viability came out at 0.246.
